Laboratory results published in PubChem BioAssay AID236 (DTP/NCI, 2004).
Values joined by “and” are separate entries in the source; they are usually repeats but may differ in a detail not shown here. Equal entries are not always repeated. Inconclusive results and toxic doses are left out.

Tested on: AK4 lymphoid leukemia ip, C3AKF1 mice, survival
Test: NCI In Vivo Anticancer Drug Screen. Data for tumor model AK4 Lymphoid Leukemia (intraperitoneal) in C3AKF1 (CHKRF1) mice
Details: endpoint: median survival time, higher = longer survival
Procedure: The antitumor activity of compounds was measured in mice bearing transplantable tumors. Survival or tumor size were measured and the results are expressed as the measurement made in the treated group (T) divided by the measurement made in the vehicle treated control group (C). The tumor model used in this assay is AK4 Lymphoid Leukemia (intraperitoneal) in C3AKF1 (CHKRF1) mice

[1] = dose: 2.0 mg/kg/injection, schedule: Q01DX010 (ip), vehicle: saline
[2] = dose: 2.5 mg/kg/injection, schedule: Q01DX010 (ip), vehicle: saline
[3] = dose: 5.0 mg/kg/injection, schedule: Q01DX010 (ip), vehicle: saline
[4] = dose: 10.0 mg/kg/injection, schedule: Q01DX010 (ip), vehicle: saline

In the case of `NC(Cc1ccc(N(CCCl)CCCl)cc1)C(=O)O` (centres undefined), the T/C [1] is reported as 150 % of control, the T/C [2] is reported as 164 % of control and the T/C [3] is reported as 164 % of control. For the same compound, the T/C (dose: 8.0 mg/kg/injection, schedule: Q01DX010 (ip), vehicle: saline) was 150 % of control, the T/C [4] was 158 % of control and the T/C (dose: 16.0 mg/kg/injection, schedule: Q01DX010 (ip), vehicle: saline) was 100 % of control. The T/C (dose: 20.0 mg/kg/injection, schedule: Q01DX010 (ip), vehicle: saline) was 117 % of control.
`S=P(N1CC1)(N1CC1)N1CC1` was tested, and the T/C (dose: 0.75 mg/kg/injection, schedule: Q01DX010 (ip), vehicle: saline) was 104 % of control and 105 % of control, the T/C (dose: 1.5 mg/kg/injection, schedule: Q01DX010 (ip), vehicle: saline) was 100 % of control and 105 % of control and the T/C (dose: 3.0 mg/kg/injection, schedule: Q01DX010 (ip), vehicle: saline) was 95 % of control and 104 % of control. The T/C (dose: 6.0 mg/kg/injection, schedule: Q01DX010 (ip), vehicle: saline) was 105 % of control and 109 % of control.
For `C[C@]12C=CC(=O)C=C1CC[C@@H]1[C@@H]2C(=O)C[C@@]2(C)[C@H]1CC[C@]2(O)C(=O)CO`, the T/C (dose: 6.25 mg/kg/injection, schedule: Q01DX010 (sc), vehicle: steriod suspending solution) was 100 % of control, the T/C (dose: 12.5 mg/kg/injection, schedule: Q01DX010 (sc), vehicle: steriod suspending solution) was 100 % of control and 87 % of control and the T/C (dose: 12.5 mg/kg/injection, schedule: Q01DX Z (sc), vehicle: steriod suspending solution) was 93 % of control. For the same compound, the T/C (dose: 25.0 mg/kg/injection, schedule: Q01DX010 (sc), vehicle: steriod suspending solution) was 100 % of control and 87 % of control, the T/C (dose: 25.0 mg/kg/injection, schedule: Q01DX Z (sc), vehicle: steriod suspending solution) was 93 % of control and the T/C (dose: 50.0 mg/kg/injection, schedule: Q01DX010 (sc), vehicle: steriod suspending solution) was 90 % of control and 100 % of control (2×). For the same compound, the T/C (dose: 50.0 mg/kg/injection, schedule: Q01DX Z (sc), vehicle: steriod suspending solution) was 96 % of control and 100 % of control, the T/C (dose: 100.0 mg/kg/injection, schedule: Q01DX010 (sc), vehicle: steriod suspending solution) was 90 % of control and 118 % of control and the T/C (dose: 100.0 mg/kg/injection, schedule: Q01DX Z (sc), vehicle: steriod suspending solution) was 96 % of control. The T/C (dose: 200.0 mg/kg/injection, schedule: Q01DX010 (sc), vehicle: steriod suspending solution) was 105 % of control and 118 % of control and the T/C (dose: 200.0 mg/kg/injection, schedule: Q01DX Z (sc), vehicle: steriod suspending solution) was 96 % of control and 120 % of control.
With `N#[N+]c1cnc([O-])[nH]c1=O` the T/C (dose: 1.25 mg/kg/injection, schedule: Q01DX010 (ip), vehicle: saline) was 100 % of control, the T/C [2] was 100 % of control and the T/C [3] was 100 % of control. The T/C [4] was 100 % of control.
In the case of `O=P1(N(CCCl)CCCl)NCCCO1` (centres undefined), the T/C (dose: 11.3 mg/kg/injection, schedule: Q01DX010 (ip), vehicle: saline) is reported as 175 % of control, the T/C (dose: 11.3 mg/kg/injection, schedule: Q01DX Z (ip), vehicle: saline) is reported as 180 % of control and 189 % of control and the T/C (dose: 22.5 mg/kg/injection, schedule: Q01DX010 (ip), vehicle: saline) is reported as 170 % of control and 187 % of control. The T/C (dose: 22.5 mg/kg/injection, schedule: Q01DX Z (ip), vehicle: saline) was 202 % of control and 210 % of control, the T/C (dose: 45.0 mg/kg/injection, schedule: Q01DX010 (ip), vehicle: saline) was 220 % of control and 375 % of control and the T/C (dose: 45.0 mg/kg/injection, schedule: Q01DX Z (ip), vehicle: saline) was 196 % of control and 204 % of control. The T/C (dose: 90.0 mg/kg/injection, schedule: Q01DX010 (ip), vehicle: saline) was 105 % of control and 225 % of control, the T/C (dose: 90.0 mg/kg/injection, schedule: Q01DX Z (ip), vehicle: saline) was 151 % of control and 168 % of control and the T/C (dose: 180.0 mg/kg/injection, schedule: Q01DX010 (ip), vehicle: saline) was 105 % of control and 118 % of control. For the same compound, the T/C (dose: 180.0 mg/kg/injection, schedule: Q01DX Z (ip), vehicle: saline) was 113 % of control and 120 % of control.
With `CC(=O)NC1=C(N2CC2)C(=O)C(NC(C)=O)=C(N2CC2)C1=O` the T/C (dose: 0.5 mg/kg/injection, schedule: Q01DX010 (ip), vehicle: saline) was 152 % of control, the T/C (dose: 1.0 mg/kg/injection, schedule: Q01DX010 (ip), vehicle: saline) was 152 % of control and the T/C [1] was 88 % of control. For the same compound, the T/C (dose: 125.0 micrograms/kg/injection, schedule: Q01DX010 (ip), vehicle: saline) was 100 % of control, the T/C (dose: 250.0 micrograms/kg/injection, schedule: Q01DX010 (ip), vehicle: saline) was 111 % of control and the T/C (dose: 500.0 micrograms/kg/injection, schedule: Q01DX010 (ip), vehicle: saline) was 116 % of control.
With `Nc1ncnc2c1ccn2C1OC(CO)C(O)C1O` (centres undefined) the T/C (dose: 156.0 micrograms/kg/injection, schedule: Q01DX010 (ip), vehicle: saline) was 106 % of control, the T/C (dose: 313.0 micrograms/kg/injection, schedule: Q01DX010 (ip), vehicle: saline) was 112 % of control and the T/C (dose: 625.0 micrograms/kg/injection, schedule: Q01DX010 (ip), vehicle: saline) was 112 % of control. The T/C (dose: 1250.0 micrograms/kg/injection, schedule: Q01DX010 (ip), vehicle: saline) was 112 % of control.
With `CCOC(N)=O` the T/C (dose: 125.0 mg/kg/injection, schedule: Q01DX010 (ip), vehicle: saline) was 100 % of control and 121 % of control, the T/C (dose: 250.0 mg/kg/injection, schedule: Q01DX010 (ip), vehicle: saline) was 100 % of control and 106 % of control and the T/C (dose: 1000.0 mg/kg/injection, schedule: Q01DX010 (ip), vehicle: saline) was 87 % of control.
